Columns and labels:
Format in all cases: binding
[1] = biological target: kinases (KINOMEscan panel) (Homo sapiens, UniProt Q9Y4K4); conditions: kinase MAP4K5; NEW KINOMEscan
[2] = biological target: kinases (KINOMEscan panel) (Homo sapiens, UniProt Q9Y2H9); conditions: MAST1; NEW KINOMEscan
[3] = biological target: kinases (KINOMEscan panel) (Homo sapiens, UniProt Q96NX5); conditions: CAMK1G; NEW KINOMEscan
[4] = biological target: T1, kinases (KINOMEscan panel) (Homo sapiens, UniProt Q13873); conditions: kinase BMPR2; NEW KINOMEscan
T1 sequence (Q13873 27-1038): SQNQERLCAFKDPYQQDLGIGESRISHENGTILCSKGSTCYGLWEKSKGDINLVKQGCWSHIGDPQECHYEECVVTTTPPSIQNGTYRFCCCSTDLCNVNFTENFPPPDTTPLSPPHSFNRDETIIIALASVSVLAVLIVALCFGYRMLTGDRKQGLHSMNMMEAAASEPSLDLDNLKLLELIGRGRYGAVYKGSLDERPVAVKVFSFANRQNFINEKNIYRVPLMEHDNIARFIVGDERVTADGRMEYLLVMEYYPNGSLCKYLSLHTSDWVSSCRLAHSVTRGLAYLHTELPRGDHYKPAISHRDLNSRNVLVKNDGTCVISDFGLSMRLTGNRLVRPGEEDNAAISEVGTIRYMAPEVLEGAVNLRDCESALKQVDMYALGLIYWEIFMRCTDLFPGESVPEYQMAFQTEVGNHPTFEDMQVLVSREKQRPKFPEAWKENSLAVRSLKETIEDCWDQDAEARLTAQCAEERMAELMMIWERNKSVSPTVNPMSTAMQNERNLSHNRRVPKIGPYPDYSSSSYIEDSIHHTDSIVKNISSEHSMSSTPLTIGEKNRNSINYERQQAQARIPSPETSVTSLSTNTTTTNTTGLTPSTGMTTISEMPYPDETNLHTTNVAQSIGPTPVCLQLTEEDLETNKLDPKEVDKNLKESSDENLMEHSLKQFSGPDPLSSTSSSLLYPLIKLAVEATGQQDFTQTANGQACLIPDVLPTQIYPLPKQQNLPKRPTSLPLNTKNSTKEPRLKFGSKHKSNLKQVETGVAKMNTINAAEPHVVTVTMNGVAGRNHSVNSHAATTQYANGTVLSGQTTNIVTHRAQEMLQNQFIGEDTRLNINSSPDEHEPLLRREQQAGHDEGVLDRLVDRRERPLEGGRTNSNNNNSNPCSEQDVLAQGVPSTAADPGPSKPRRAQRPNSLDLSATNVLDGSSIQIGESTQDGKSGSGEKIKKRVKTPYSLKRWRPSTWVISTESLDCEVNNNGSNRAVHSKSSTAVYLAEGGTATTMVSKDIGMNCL

[5] = biological target: T2, kinases (KINOMEscan panel) (Homo sapiens, UniProt Q13546); conditions: kinase RIPK1; NEW KINOMEscan
T2 sequence (Q13546 1-671): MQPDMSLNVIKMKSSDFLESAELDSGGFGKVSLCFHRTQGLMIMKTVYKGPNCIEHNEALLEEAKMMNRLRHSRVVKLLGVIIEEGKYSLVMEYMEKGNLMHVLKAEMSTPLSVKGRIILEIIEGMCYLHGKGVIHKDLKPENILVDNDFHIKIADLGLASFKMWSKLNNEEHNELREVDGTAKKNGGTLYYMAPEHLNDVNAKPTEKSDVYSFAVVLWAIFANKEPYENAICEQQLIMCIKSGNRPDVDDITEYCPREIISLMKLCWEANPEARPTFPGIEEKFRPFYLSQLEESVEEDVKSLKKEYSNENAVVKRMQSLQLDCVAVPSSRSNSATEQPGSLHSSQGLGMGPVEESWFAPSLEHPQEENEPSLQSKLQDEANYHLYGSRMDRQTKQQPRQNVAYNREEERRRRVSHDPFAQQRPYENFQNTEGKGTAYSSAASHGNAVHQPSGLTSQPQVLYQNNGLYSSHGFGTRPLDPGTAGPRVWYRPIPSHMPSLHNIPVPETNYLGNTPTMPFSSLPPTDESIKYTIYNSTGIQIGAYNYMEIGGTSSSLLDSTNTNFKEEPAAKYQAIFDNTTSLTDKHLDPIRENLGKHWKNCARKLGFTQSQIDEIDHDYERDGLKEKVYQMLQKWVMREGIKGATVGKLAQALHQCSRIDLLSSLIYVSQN

[6] = biological target: kinases (KINOMEscan panel) (Homo sapiens, UniProt P09769); conditions: FGR; NEW KINOMEscan
kinases (KINOMEscan panel) (Homo sapiens, UniProt P09769), sequence (P09769 whole entry): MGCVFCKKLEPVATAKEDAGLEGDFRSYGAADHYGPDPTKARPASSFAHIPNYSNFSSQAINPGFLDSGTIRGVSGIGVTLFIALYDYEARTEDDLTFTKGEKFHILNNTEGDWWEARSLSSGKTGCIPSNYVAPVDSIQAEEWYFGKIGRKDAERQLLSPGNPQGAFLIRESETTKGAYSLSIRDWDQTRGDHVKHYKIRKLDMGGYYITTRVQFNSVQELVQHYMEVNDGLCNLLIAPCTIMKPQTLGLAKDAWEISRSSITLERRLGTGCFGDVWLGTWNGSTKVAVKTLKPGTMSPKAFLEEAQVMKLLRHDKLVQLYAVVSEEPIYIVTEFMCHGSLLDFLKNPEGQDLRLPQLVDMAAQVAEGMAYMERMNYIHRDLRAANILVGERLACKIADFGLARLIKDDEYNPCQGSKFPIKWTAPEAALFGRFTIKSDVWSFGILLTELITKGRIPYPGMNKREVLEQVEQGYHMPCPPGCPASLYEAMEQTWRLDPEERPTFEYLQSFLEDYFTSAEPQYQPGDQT

[7] = biological target: kinases (KINOMEscan panel) (Homo sapiens, UniProt Q9HCP0); conditions: kinase CSNK1G1; NEW KINOMEscan
kinases (KINOMEscan panel) (Homo sapiens, UniProt Q9HCP0), sequence (Q9HCP0 whole entry): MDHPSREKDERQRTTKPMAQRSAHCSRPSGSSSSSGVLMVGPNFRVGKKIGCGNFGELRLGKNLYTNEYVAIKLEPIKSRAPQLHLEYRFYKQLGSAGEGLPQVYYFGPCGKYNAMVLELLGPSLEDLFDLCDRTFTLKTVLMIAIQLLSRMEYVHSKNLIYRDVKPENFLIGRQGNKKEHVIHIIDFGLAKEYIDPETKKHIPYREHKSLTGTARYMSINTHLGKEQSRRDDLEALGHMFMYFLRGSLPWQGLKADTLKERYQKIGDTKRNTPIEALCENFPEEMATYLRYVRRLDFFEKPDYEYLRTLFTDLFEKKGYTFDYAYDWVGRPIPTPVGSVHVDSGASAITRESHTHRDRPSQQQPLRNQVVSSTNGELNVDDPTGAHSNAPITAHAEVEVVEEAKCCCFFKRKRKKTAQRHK

[8] = biological target: T3, kinases (KINOMEscan panel) (Homo sapiens, UniProt Q8TBX8); conditions: PIP4K2C; NEW KINOMEscan
T3 sequence (Q8TBX8 1-421): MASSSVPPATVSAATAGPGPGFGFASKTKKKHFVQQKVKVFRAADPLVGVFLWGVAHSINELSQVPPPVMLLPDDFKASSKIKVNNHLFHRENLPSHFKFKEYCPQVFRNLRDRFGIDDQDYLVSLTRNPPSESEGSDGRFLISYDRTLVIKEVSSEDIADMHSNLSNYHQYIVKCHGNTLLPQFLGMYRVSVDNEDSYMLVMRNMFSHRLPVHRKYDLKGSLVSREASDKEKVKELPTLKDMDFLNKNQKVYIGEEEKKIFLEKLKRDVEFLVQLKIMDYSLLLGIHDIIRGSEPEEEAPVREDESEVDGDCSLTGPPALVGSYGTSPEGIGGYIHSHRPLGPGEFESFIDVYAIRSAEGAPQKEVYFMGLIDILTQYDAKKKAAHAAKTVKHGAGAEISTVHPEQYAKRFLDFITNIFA

kinases (KINOMEscan panel) (Homo sapiens, UniProt Q9Y2H9), sequence (Q9Y2H9 whole entry): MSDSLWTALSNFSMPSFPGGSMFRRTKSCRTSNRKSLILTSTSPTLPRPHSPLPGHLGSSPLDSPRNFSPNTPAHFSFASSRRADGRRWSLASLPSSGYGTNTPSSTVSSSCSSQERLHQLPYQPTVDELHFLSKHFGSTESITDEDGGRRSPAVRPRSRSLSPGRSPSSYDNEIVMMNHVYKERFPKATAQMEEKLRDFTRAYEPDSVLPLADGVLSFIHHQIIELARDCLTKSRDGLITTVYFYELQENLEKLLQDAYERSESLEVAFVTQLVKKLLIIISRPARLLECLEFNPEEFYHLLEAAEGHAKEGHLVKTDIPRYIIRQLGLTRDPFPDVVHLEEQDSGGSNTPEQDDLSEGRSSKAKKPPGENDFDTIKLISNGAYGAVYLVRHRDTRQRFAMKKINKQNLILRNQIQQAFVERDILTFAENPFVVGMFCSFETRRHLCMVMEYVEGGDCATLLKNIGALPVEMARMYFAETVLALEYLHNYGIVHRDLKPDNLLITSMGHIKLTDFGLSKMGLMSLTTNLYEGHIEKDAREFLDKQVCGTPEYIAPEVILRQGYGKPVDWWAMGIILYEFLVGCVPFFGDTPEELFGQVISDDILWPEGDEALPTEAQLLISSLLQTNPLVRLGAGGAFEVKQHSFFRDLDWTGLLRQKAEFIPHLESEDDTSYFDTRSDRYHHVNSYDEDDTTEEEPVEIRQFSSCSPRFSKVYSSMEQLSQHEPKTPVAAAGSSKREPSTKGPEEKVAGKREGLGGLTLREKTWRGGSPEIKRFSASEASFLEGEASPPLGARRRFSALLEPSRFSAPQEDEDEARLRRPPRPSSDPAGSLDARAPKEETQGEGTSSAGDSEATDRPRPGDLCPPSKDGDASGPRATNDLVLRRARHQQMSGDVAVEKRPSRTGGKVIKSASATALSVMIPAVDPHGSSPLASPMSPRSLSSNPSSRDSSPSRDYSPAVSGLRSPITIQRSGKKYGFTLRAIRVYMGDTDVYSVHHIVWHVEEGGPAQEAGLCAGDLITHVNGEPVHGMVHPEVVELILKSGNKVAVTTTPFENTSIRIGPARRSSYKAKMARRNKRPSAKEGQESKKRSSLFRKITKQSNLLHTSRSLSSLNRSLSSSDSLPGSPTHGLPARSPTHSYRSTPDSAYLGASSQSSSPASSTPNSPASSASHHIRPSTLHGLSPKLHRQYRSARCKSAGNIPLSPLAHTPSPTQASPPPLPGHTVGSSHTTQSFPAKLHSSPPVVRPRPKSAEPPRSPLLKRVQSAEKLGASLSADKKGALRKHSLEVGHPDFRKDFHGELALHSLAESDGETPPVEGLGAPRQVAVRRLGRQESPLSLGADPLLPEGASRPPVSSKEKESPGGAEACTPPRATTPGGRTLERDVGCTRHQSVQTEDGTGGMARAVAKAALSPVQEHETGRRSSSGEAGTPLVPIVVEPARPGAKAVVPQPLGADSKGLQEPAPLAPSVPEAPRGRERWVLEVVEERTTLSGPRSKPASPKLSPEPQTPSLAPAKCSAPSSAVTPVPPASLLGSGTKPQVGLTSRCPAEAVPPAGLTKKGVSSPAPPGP
kinases (KINOMEscan panel) (Homo sapiens, UniProt Q96NX5), sequence (Q96NX5 whole entry): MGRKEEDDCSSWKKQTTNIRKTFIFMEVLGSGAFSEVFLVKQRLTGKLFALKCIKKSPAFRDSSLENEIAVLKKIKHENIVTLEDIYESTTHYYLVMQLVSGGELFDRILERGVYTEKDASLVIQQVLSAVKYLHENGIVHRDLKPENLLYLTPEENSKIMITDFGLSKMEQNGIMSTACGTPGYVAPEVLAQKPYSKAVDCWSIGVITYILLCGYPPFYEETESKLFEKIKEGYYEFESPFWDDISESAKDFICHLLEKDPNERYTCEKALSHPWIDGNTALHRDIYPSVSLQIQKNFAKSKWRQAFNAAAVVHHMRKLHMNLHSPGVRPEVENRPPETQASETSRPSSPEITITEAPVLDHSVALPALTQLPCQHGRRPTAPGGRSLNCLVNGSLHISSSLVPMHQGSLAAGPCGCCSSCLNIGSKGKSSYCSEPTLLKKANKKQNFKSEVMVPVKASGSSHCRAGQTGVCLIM
kinases (KINOMEscan panel) (Homo sapiens, UniProt Q9Y4K4), sequence (Q9Y4K4 whole entry): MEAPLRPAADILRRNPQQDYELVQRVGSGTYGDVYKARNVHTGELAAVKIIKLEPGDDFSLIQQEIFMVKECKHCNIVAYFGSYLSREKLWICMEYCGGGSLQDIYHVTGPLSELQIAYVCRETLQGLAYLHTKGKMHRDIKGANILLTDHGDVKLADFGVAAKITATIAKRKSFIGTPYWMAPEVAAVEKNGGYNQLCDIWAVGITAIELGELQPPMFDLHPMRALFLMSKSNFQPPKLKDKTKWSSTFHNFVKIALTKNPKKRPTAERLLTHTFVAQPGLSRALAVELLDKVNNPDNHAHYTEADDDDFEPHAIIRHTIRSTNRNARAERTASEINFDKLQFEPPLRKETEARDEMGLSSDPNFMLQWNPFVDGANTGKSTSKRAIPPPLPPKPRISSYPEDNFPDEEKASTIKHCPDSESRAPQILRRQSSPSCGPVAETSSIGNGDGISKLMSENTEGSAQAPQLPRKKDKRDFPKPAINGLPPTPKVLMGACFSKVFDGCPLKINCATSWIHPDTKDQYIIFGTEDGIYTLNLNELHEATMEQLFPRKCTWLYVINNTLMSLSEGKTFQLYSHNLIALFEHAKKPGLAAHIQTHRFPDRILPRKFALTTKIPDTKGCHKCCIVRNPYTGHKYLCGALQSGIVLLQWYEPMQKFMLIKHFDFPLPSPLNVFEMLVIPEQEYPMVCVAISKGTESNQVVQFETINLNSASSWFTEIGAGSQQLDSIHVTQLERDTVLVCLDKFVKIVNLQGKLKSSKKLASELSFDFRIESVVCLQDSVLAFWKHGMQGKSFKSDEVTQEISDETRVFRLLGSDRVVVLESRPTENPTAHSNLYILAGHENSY

Cc1cccc(-c2nc(Nc3ccc4nn(C)cc4c3)c3ccccc3n2)n1 [NK167]
2: KINOMEscan RIPK1 [5]
0: KINOMEscan MAP4K5 [1] | KINOMEscan MAST1 [2] | KINOMEscan CAMK1G [3] | KINOMEscan BMPR2 [4] | KINOMEscan FGR [6] | KINOMEscan CSNK1G1 [7] | KINOMEscan PIP4K2C [8]

Cc1cccc(-c2nc(N(C)c3ccc4ncsc4c3)c3ccccc3n2)n1 [NK-161]
18: KINOMEscan BMPR2 [4]
0: KINOMEscan MAP4K5 [1] | KINOMEscan MAST1 [2] | KINOMEscan CAMK1G [3] | KINOMEscan RIPK1 [5] | KINOMEscan FGR [6] | KINOMEscan CSNK1G1 [7] | KINOMEscan PIP4K2C [8]
